Key:
Experiment in all cases: relative viability (nuclei count vs DMSO), 5 days (fraction); higher = more cells survive
Apatinib + Alpelisib = compound: N#CC1(c2ccc(NC(=O)c3cccnc3NCc3ccncc3)cc2)CCCC1 [Apatinib] + Cc1nc(NC(=O)N2CCC[C@H]2C(N)=O)sc1-c1ccnc(C(C)(C)C(F)(F)F)c1 [Alpelisib] (partner 2 µM)
In short: (§1)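 Five library-drug doses in √10 steps were combined with a fixed anchor-drug dose, or a single drug was given alone, by pin tool to lung cancer cell lines in 1536-well plates the day after seeding. Nuclei were stained and counted after 5 days. Relative viability is the nuclei count in treated wells over that in vehicle wells, taken as the median of duplicate plates.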

Apatinib + Palbociclib = compound: N#CC1(c2ccc(NC(=O)c3cccnc3NCc3ccncc3)cc2)CCCC1 [Apatinib] + CC(=O)c1c(C)c2cnc(Nc3ccc(N4CCNCC4)cn3)nc2n(C2CCCC2)c1=O [Palbociclib] (partner 0.5 µM)
In short: as §1

Apatinib + Tozasertib = compound: N#CC1(c2ccc(NC(=O)c3cccnc3NCc3ccncc3)cc2)CCCC1 [Apatinib] + Cc1cc(Nc2cc(N3CCN(C)CC3)nc(Sc3ccc(NC(=O)C4CC4)cc3)n2)n[nH]1 [Tozasertib] (partner 0.1 µM)
In short: as §1

Apatinib + Phenformin = compound: N#CC1(c2ccc(NC(=O)c3cccnc3NCc3ccncc3)cc2)CCCC1 [Apatinib] + N=C(N)NC(=N)NCCc1ccccc1 [Phenformin] (partner 250 µM)
In short: as §1

EBC-1
relative viability (Apatinib + Alpelisib; first compound 0.08 µM): 0.844
relative viability (Apatinib + Alpelisib; first compound 0.253 µM): 0.935
relative viability (Apatinib + Alpelisib; first compound 0.8 µM): 0.88
relative viability (Apatinib + Alpelisib; first compound 2.53 µM): 0.734
relative viability (Apatinib + Alpelisib; first compound 8 µM): 0.404

EKVX
relative viability (Apatinib + Palbociclib; first compound 0.08 µM): 0.378
relative viability (Apatinib + Palbociclib; first compound 0.253 µM): 0.482
relative viability (Apatinib + Palbociclib; first compound 0.8 µM): 0.33
relative viability (Apatinib + Palbociclib; first compound 2.53 µM): 0.375
relative viability (Apatinib + Palbociclib; first compound 8 µM): 0.378
relative viability (Apatinib + Tozasertib; first compound 0.08 µM): 0.369
relative viability (Apatinib + Tozasertib; first compound 0.253 µM): 0.404
relative viability (Apatinib + Tozasertib; first compound 0.8 µM): 0.395
relative viability (Apatinib + Tozasertib; first compound 2.53 µM): 0.224
relative viability (Apatinib + Tozasertib; first compound 8 µM): 0.135
relative viability (Apatinib + Phenformin; first compound 0.08 µM): 0.233
relative viability (Apatinib + Phenformin; first compound 0.253 µM): 0.228
relative viability (Apatinib + Phenformin; first compound 0.8 µM): 0.234
relative viability (Apatinib + Phenformin; first compound 2.53 µM): 0.216
relative viability (Apatinib + Phenformin; first compound 8 µM): 0.234
relative viability (Apatinib + Alpelisib; first compound 0.08 µM): 0.92
relative viability (Apatinib + Alpelisib; first compound 0.253 µM): 0.861
relative viability (Apatinib + Alpelisib; first compound 0.8 µM): 0.882
relative viability (Apatinib + Alpelisib; first compound 2.53 µM): 0.761
relative viability (Apatinib + Alpelisib; first compound 8 µM): 0.774

EMC-BAC-2
relative viability (Apatinib + Palbociclib; first compound 0.08 µM): 0.518
relative viability (Apatinib + Palbociclib; first compound 0.253 µM): 0.536
relative viability (Apatinib + Palbociclib; first compound 0.8 µM): 0.506
relative viability (Apatinib + Palbociclib; first compound 2.53 µM): 0.449
relative viability (Apatinib + Palbociclib; first compound 8 µM): 0.412
relative viability (Apatinib + Tozasertib; first compound 0.08 µM): 0.334
relative viability (Apatinib + Tozasertib; first compound 0.253 µM): 0.307
relative viability (Apatinib + Tozasertib; first compound 0.8 µM): 0.245
relative viability (Apatinib + Tozasertib; first compound 2.53 µM): 0.229
relative viability (Apatinib + Tozasertib; first compound 8 µM): 0.194
relative viability (Apatinib + Phenformin; first compound 0.08 µM): 0.578
relative viability (Apatinib + Phenformin; first compound 0.253 µM): 0.568
relative viability (Apatinib + Phenformin; first compound 0.8 µM): 0.463
relative viability (Apatinib + Phenformin; first compound 2.53 µM): 0.383
relative viability (Apatinib + Phenformin; first compound 8 µM): 0.39
relative viability (Apatinib + Alpelisib; first compound 0.08 µM): 0.759
relative viability (Apatinib + Alpelisib; first compound 0.253 µM): 0.785
relative viability (Apatinib + Alpelisib; first compound 0.8 µM): 0.76
relative viability (Apatinib + Alpelisib; first compound 2.53 µM): 0.751
relative viability (Apatinib + Alpelisib; first compound 8 µM): 0.678

EPLC-272H
relative viability (Apatinib + Palbociclib; first compound 0.08 µM): 0.284
relative viability (Apatinib + Palbociclib; first compound 0.253 µM): 0.341
relative viability (Apatinib + Palbociclib; first compound 0.8 µM): 0.359
relative viability (Apatinib + Palbociclib; first compound 2.53 µM): 0.336
relative viability (Apatinib + Palbociclib; first compound 8 µM): 0.313
relative viability (Apatinib + Tozasertib; first compound 0.08 µM): 0.28
relative viability (Apatinib + Tozasertib; first compound 0.8 µM): 0.248
relative viability (Apatinib + Tozasertib; first compound 2.53 µM): 0.18
relative viability (Apatinib + Tozasertib; first compound 8 µM): 0.144
relative viability (Apatinib + Phenformin; first compound 0.08 µM): 0.325
relative viability (Apatinib + Phenformin; first compound 0.8 µM): 0.318
relative viability (Apatinib + Phenformin; first compound 2.53 µM): 0.333
relative viability (Apatinib + Phenformin; first compound 8 µM): 0.265
relative viability (Apatinib + Alpelisib; first compound 0.08 µM): 1.04
relative viability (Apatinib + Alpelisib; first compound 0.253 µM): 0.904
relative viability (Apatinib + Alpelisib; first compound 0.8 µM): 0.841
relative viability (Apatinib + Alpelisib; first compound 2.53 µM): 0.971
relative viability (Apatinib + Alpelisib; first compound 8 µM): 0.903

H3255
relative viability (Apatinib + Palbociclib; first compound 0.08 µM): 0.339
relative viability (Apatinib + Palbociclib; first compound 0.253 µM): 0.306
relative viability (Apatinib + Palbociclib; first compound 0.8 µM): 0.319
relative viability (Apatinib + Palbociclib; first compound 2.53 µM): 0.305
relative viability (Apatinib + Palbociclib; first compound 8 µM): 0.285
relative viability (Apatinib + Tozasertib; first compound 0.08 µM): 0.775
relative viability (Apatinib + Tozasertib; first compound 0.253 µM): 0.697
relative viability (Apatinib + Tozasertib; first compound 0.8 µM): 0.795
relative viability (Apatinib + Tozasertib; first compound 2.53 µM): 0.521
relative viability (Apatinib + Tozasertib; first compound 8 µM): 0.435
relative viability (Apatinib + Phenformin; first compound 0.08 µM): 0.393
relative viability (Apatinib + Phenformin; first compound 0.253 µM): 0.398
relative viability (Apatinib + Phenformin; first compound 0.8 µM): 0.343
relative viability (Apatinib + Phenformin; first compound 2.53 µM): 0.358
relative viability (Apatinib + Phenformin; first compound 8 µM): 0.32
relative viability (Apatinib + Alpelisib; first compound 0.08 µM): 0.665
relative viability (Apatinib + Alpelisib; first compound 0.253 µM): 0.674
relative viability (Apatinib + Alpelisib; first compound 0.8 µM): 0.569
relative viability (Apatinib + Alpelisib; first compound 2.53 µM): 0.614
relative viability (Apatinib + Alpelisib; first compound 8 µM): 0.537

HARA
relative viability (Apatinib + Palbociclib; first compound 0.08 µM): 0.291
relative viability (Apatinib + Palbociclib; first compound 0.253 µM): 0.262
relative viability (Apatinib + Palbociclib; first compound 0.8 µM): 0.303
relative viability (Apatinib + Palbociclib; first compound 2.53 µM): 0.271
relative viability (Apatinib + Palbociclib; first compound 8 µM): 0.272
relative viability (Apatinib + Tozasertib; first compound 0.08 µM): 0.119
relative viability (Apatinib + Tozasertib; first compound 0.253 µM): 0.129
relative viability (Apatinib + Tozasertib; first compound 0.8 µM): 0.121
relative viability (Apatinib + Tozasertib; first compound 2.53 µM): 0.0894
relative viability (Apatinib + Tozasertib; first compound 8 µM): 0.0993
relative viability (Apatinib + Phenformin; first compound 0.08 µM): 0.424
relative viability (Apatinib + Phenformin; first compound 0.253 µM): 0.455
relative viability (Apatinib + Phenformin; first compound 0.8 µM): 0.391
relative viability (Apatinib + Phenformin; first compound 2.53 µM): 0.28
relative viability (Apatinib + Phenformin; first compound 8 µM): 0.298
relative viability (Apatinib + Alpelisib; first compound 0.08 µM): 1.07
relative viability (Apatinib + Alpelisib; first compound 0.253 µM): 0.837
relative viability (Apatinib + Alpelisib; first compound 0.8 µM): 0.852
relative viability (Apatinib + Alpelisib; first compound 2.53 µM): 0.735
relative viability (Apatinib + Alpelisib; first compound 8 µM): 0.795

HCC-15
relative viability (Apatinib + Palbociclib; first compound 0.08 µM): 0.792
relative viability (Apatinib + Palbociclib; first compound 0.253 µM): 0.734
relative viability (Apatinib + Palbociclib; first compound 0.8 µM): 0.677
relative viability (Apatinib + Palbociclib; first compound 2.53 µM): 0.705
relative viability (Apatinib + Palbociclib; first compound 8 µM): 0.586
relative viability (Apatinib + Tozasertib; first compound 0.08 µM): 0.376
relative viability (Apatinib + Tozasertib; first compound 0.253 µM): 0.48
relative viability (Apatinib + Tozasertib; first compound 0.8 µM): 0.357
relative viability (Apatinib + Tozasertib; first compound 2.53 µM): 0.248
relative viability (Apatinib + Tozasertib; first compound 8 µM): 0.163
relative viability (Apatinib + Phenformin; first compound 0.08 µM): 0.472
relative viability (Apatinib + Phenformin; first compound 0.253 µM): 0.512
relative viability (Apatinib + Phenformin; first compound 0.8 µM): 0.435
relative viability (Apatinib + Phenformin; first compound 2.53 µM): 0.39
relative viability (Apatinib + Phenformin; first compound 8 µM): 0.371
relative viability (Apatinib + Alpelisib; first compound 0.08 µM): 0.911
relative viability (Apatinib + Alpelisib; first compound 0.253 µM): 0.904
relative viability (Apatinib + Alpelisib; first compound 0.8 µM): 0.839
relative viability (Apatinib + Alpelisib; first compound 2.53 µM): 0.891
relative viability (Apatinib + Alpelisib; first compound 8 µM): 0.705

HCC-44
relative viability (Apatinib + Palbociclib; first compound 0.08 µM): 0.999
relative viability (Apatinib + Palbociclib; first compound 0.253 µM): 0.987
relative viability (Apatinib + Palbociclib; first compound 0.8 µM): 0.894
relative viability (Apatinib + Palbociclib; first compound 2.53 µM): 0.839
relative viability (Apatinib + Palbociclib; first compound 8 µM): 0.8
relative viability (Apatinib + Tozasertib; first compound 0.08 µM): 1.23
relative viability (Apatinib + Tozasertib; first compound 0.253 µM): 1.12
relative viability (Apatinib + Tozasertib; first compound 0.8 µM): 0.75
relative viability (Apatinib + Tozasertib; first compound 2.53 µM): 0.844
relative viability (Apatinib + Tozasertib; first compound 8 µM): 0.494
relative viability (Apatinib + Phenformin; first compound 0.08 µM): 0.153
relative viability (Apatinib + Phenformin; first compound 0.253 µM): 0.17
relative viability (Apatinib + Phenformin; first compound 0.8 µM): 0.309
relative viability (Apatinib + Phenformin; first compound 2.53 µM): 0.22
relative viability (Apatinib + Phenformin; first compound 8 µM): 0.203
relative viability (Apatinib + Alpelisib; first compound 0.08 µM): 0.854
relative viability (Apatinib + Alpelisib; first compound 0.253 µM): 0.784
relative viability (Apatinib + Alpelisib; first compound 0.8 µM): 0.745
relative viability (Apatinib + Alpelisib; first compound 2.53 µM): 0.766
relative viability (Apatinib + Alpelisib; first compound 8 µM): 0.726

HCC-78
relative viability (Apatinib + Palbociclib; first compound 0.08 µM): 0.48
relative viability (Apatinib + Palbociclib; first compound 0.253 µM): 0.453
relative viability (Apatinib + Palbociclib; first compound 0.8 µM): 0.476
relative viability (Apatinib + Palbociclib; first compound 2.53 µM): 0.494
relative viability (Apatinib + Palbociclib; first compound 8 µM): 0.442
relative viability (Apatinib + Tozasertib; first compound 0.08 µM): 0.477
relative viability (Apatinib + Tozasertib; first compound 0.253 µM): 0.333
relative viability (Apatinib + Tozasertib; first compound 0.8 µM): 0.535
relative viability (Apatinib + Tozasertib; first compound 2.53 µM): 0.289
relative viability (Apatinib + Tozasertib; first compound 8 µM): 0.317
relative viability (Apatinib + Phenformin; first compound 0.08 µM): 0.644
relative viability (Apatinib + Phenformin; first compound 0.253 µM): 0.607
relative viability (Apatinib + Phenformin; first compound 0.8 µM): 0.691
relative viability (Apatinib + Phenformin; first compound 2.53 µM): 0.605
relative viability (Apatinib + Phenformin; first compound 8 µM): 0.618
relative viability (Apatinib + Alpelisib; first compound 0.08 µM): 0.414
relative viability (Apatinib + Alpelisib; first compound 0.253 µM): 0.291
relative viability (Apatinib + Alpelisib; first compound 0.8 µM): 0.364
relative viability (Apatinib + Alpelisib; first compound 2.53 µM): 0.25
relative viability (Apatinib + Alpelisib; first compound 8 µM): 0.382

— the supplement of paper PMC10307832
